Measured values: US9981942B2, “Piperidine derivatives having multimodal activity against pain” (LABORATORIOS DEL DR. ESTEVE S.A., priority 2013, dated 2018)

test system: σ1 receptor and the μ-opiod receptor; assay: μ and σ1 dual binding: combined class from the Ki of both radioligand assays; design: species or system human; key to μ and σ1 dual binding: +: Both Ki-μ and Ki-σ1>=500 nM; ++: One Ki<500 nM while the other Ki is >=500 nM; +++: Both Ki-μ and Ki-σ1<500 nM; ++++: Both Ki-μ and Ki-σ1<100 nM; details: combined class for Ki-μ and Ki-σ1; transfected HEK-293 membranes (σ1), transfected CHO-K1 cell membranes (μ)
Description: To investigate binding properties of σ1 receptor ligands to human σ1 receptor, transfected HEK-293 membranes and [^3H](+)-pentazocine (Perkin Elmer, NET-1056), as the radioligand, were used. The assay was carried out with 7 μg of membrane suspension, 5 nM of [^3H](+)-pentazocine in either absence or presence of either buffer or 10 μM Haloperidol for total and non-specific binding, respectively. Binding buffer contained Tris-HCl 50 mM at pH 8. Plates were incubated at 37° C. for 120 minutes. After the incubation period, the reaction mix was then transferred to MultiScreen HTS, FC plates (Millipore), filtered and plates were washed 3 times with ice-cold 10 mM Tris-HCL (pH7.4). Filters were dried and counted at approximately 40% efficiency in a MicroBeta scintillation counter (Perkin-Elmer) using EcoScint liquid scintillation cocktail
To investigate binding properties of mu-opioid receptor ligands to human μ-opioid receptor, transfected CHO-K1 cell membranes and [^3H]-DAMGO (Perkin Elmer, ES-542-C), as the radioligand, were used. The assay was carried out with 20 μg of membrane suspension, 1 nM of [^3H]-DAMGO in either absence or presence of either buffer or 10 μM Naloxone for total and non-specific binding, respectively. Binding buffer contained Tris-HCl 50 mM, MgCl2 5 mM at pH 7.4. Plates were incubated at 27° C. for 60 minutes. After the incubation period, the reaction mix was then transferred to MultiScreen HTS, FC plates (Millipore), filtered and plates were washed 3 times with ice-cold 10 mM Tris-HCL (pH 7.4). Filters were dried and counted at approximately 40% efficiency in a MicroBeta scintillation counter (Perkin-Elmer) using EcoScint liquid scintillation cocktail.
The following scale as been adopted for representing the binding to the σ1 receptor and the μ-opiod receptor expressed as Ki: • + Both Ki-μ and Ki-σ1>=500 nM • ++ One Ki<500 nM while the other Ki is >=500 nM • +++ Both Ki-μ and Ki-σ1<500 nM • ++++ Both Ki-μ and Ki-σ1<100 nM

| Structure (SMILES) | μ and σ1 dual binding |
| --- | --- |
| CC(C)S(=O)(=O)Nc1cccc(C2CCN(Cc3cn(Cc4ncccc4Cl)nn3)CC2)n1 [Example 212, N-(6-(1-((1-((3-chloropyridin-2-yl)methyl)-1H-1,2,3-triazol-4-yl)methyl)piperidin-4-yl)pyridin-2-yl)propane-2-sulfonamide] | ++ |
| O=c1[nH]c2cccc(C3CCN(Cc4cn(-c5ccccc5)nn4)CC3)c2[nH]1 [Example 13, 4-(1-((1-phenyl-1H-1,2,3-triazol-4-yl)methyl)piperidin-4-yl)-1H-benzo[d]imidazol-2(3H)-one] | ++ |
| CS(=O)(=O)Nc1cccc(C2CCN(Cc3cn(C(CO)c4ccccc4)nn3)CC2)c1 (stereo not shown) [Example 131, N-(3-(1-((1-(2-hydroxy-1-phenylethyl)-1H-1,2,3-triazol-4-yl)methyl)piperidin-4-yl)phenyl)methanesulfonamide] | ++ |
| CCC(=O)Nc1cccc(C2CCN(Cc3cn([C@@H]4c5ccccc5C[C@H]4O)nn3)CC2)c1 [Example 69, N-(3-(1-((1-((1R,2R)-2-hydroxy-2,3-dihydro-1H-inden-1-yl)-1H-1,2,3-triazol-4-yl)methyl)piperidin-4-yl)phenyl)propionamide] | ++ |
| c1ccc(Cn2cc(CN3CCC(c4cccc(Nc5ccccn5)c4)CC3)nn2)nc1 [Example 231, N-(3-(1-((1-(pyridin-2-ylmethyl)-1H-1,2,3-triazol-4-yl)methyl)piperidin-4-yl)phenyl)pyridin-2-amine] | ++ |
| CN(C)C(=O)Nc1cccc(C2CCN(Cc3cn(-c4ccccc4)nn3)CC2)c1 [Example 38, 1,1-dimethyl-3-(3-(1-((1-phenyl-1H-1,2,3-triazol-4-yl)methyl)piperidin-4-yl)phenyl)urea] | ++ |
| COc1cccnc1-n1cc(CN2CCC(c3cccc(O)c3)CC2)nn1 [Example 219, 3-(1-((1-(3-methoxypyridin-2-yl)-1H-1,2,3-triazol-4-yl)methyl)piperidin-4-yl)phenol] | ++ |
| CC(C)S(=O)(=O)Nc1cccc(C2CCN(Cc3cc(-c4ccccn4)no3)CC2)c1 [Example 181, N-(3-(1-((3-(pyridin-2-yl)isoxazol-5-yl)methyl)piperidin-4-yl)phenyl)propane-2-sulfonamide] | ++ |
| CC(c1ccccn1)n1cc(CN2CCC(c3cccc(NS(C)(=O)=O)c3)CC2)nn1 (stereo not shown) [Example 86, N-(3-(1-((1-(1-(pyridin-2-yl)ethyl)-1H-1,2,3-triazol-4-yl)methyl)piperidin-4-yl)phenyl)methanesulfonamide] | ++ |
| CS(=O)(=O)Nc1cccc(C2CCN(Cc3cn(C4CCC(F)(F)CC4)nn3)CC2)c1 [Example 68, N-(3-(1-((1-(4,4-difluorocyclohexyl)-1H-1,2,3-triazol-4-yl)methyl)piperidin-4-yl)phenyl)methanesulfonamide] | ++ |
| CC(C)S(=O)(=O)Nc1cccc(C2CCN(Cc3cn(Cc4ccc(F)cn4)nn3)CC2)c1 [Example 135, N-(3-(1-((1-((5-fluoropyridin-2-yl)methyl)-1H-1,2,3-triazol-4-yl)methyl)piperidin-4-yl)phenyl)propane-2-sulfonamide] | ++ |

same assay, conditions: transfected HEK-293 membranes (σ1), transfected CHO-K1 cell membranes (μ)

| Structure (SMILES) | Ki range for both μ and σ1 (dual-binding class) |
| --- | --- |
| Oc1cccc(C2CCN(Cc3cn(Cc4cc(C(F)(F)F)ccn4)nn3)CC2)c1 [Example 160, 3-(1-((1-((4-(trifluoromethyl)pyridin-2-yl)methyl)-1H-1,2,3-triazol-4-yl)methyl)piperidin-4-yl)phenol] | < 100 nM |
| CS(=O)(=O)Nc1cccc(C2CCN(Cc3cn(-c4ccccc4)nn3)CC2)c1F [Example 53, N-(2-fluoro-3-(1-((1-phenyl-1H-1,2,3-triazol-4-yl)methy)piperidin-4-yl)phenyl)methanesulfonamide] | < 100 nM |
| Oc1cccc(C2CCN(Cc3cnn(-c4ccccc4)c3)CC2)c1 [Example 164, 3-(1-((1-phenyl-1H-pyrazol-4-yl)methyl)piperidin-4-yl)phenol] | < 100 nM |
| Nc1cccc(C2CCN(Cc3cn(-c4ccccc4)nn3)CC2)c1 [Example 94, 3-(1-((1-phenyl-1H-1,2,3-triazol-4-yl)methyl)piperidin-4-yl)aniline] | < 100 nM |
| Oc1cccc(C2CCN(Cc3cn(-c4ccc(F)cc4F)nn3)CC2)c1 [Example 155, 3-(1-((1-(2,4-difluorophenyl)-1H-1,2,3-triazol-4-yl)methyl)piperidin-4-yl)phenol] | < 100 nM |
| CS(=O)(=O)Nc1cccc(C2CCN(Cc3cnn(-c4ccccc4)c3)CC2)c1 [Example 163, N-(3-(1-((1-phenyl-1H-pyrazol-4-yl)methyl)piperidin-4-yl)phenyl)methanesulfonamide] | < 100 nM |
| O=S(=O)(Nc1cccc(C2CCN(Cc3cn(-c4ccccc4F)nn3)CC2)n1)C1CC1 [Example 228, N-(6-(1-((1-(2-fluorophenyl)-1H-1,2,3-triazol-4-yl)methyl)piperidin-4-yl)pyridin-2-yl)cyclopropanesulfonamid] | < 500 nM |
| Cc1ccc(C2CCN(Cc3cn(-c4ccccc4)nn3)CC2)cc1O [Example 52, 2-methyl-5-(1-((1-phenyl-1H-1,2,3-triazol-4-yl)methyl)piperidin-4-yl)phenol] | < 100 nM |
| CO[C@@H]1Cc2ccccc2[C@H]1n1cc(CN2CCC(c3cccc(O)c3)CC2)nn1 [Example 61, 3-(1-((1-((1R,2R)-2-methoxy-2,3-dihydro-1H-inden-1-yl)-1H-1,2,3-triazol-4-yl)methyl)piperidin-4-yl)phenol] | < 100 nM |
| CC(C)Cn1cc(CN2CCC(c3cccc(O)c3)CC2)nn1 [Example 25, 3-(1-((1-isobutyl-1H-1,2,3-triazol-4-yl)methyl)piperidin-4-yl)phenol] | < 100 nM |
| CS(=O)(=O)Nc1cc(F)cc(C2CCN(Cc3cn(-c4ccccc4)nn3)CC2)c1 [Example 35, N-(3-fluoro-5-(1-((1-phenyl-1H-1,2,3-triazol-4-yl)methyl)piperidin-4-yl)phenyl)methanesulfonamide] | < 100 nM |
| NS(=O)(=O)c1cccc(C2CCN(Cc3cn(-c4ccccc4)nn3)CC2)c1 [Example 140, 3-(1-((1-phenyl-1H-1,2,3-triazol-4-yl)methyl)piperidin-4-yl)benzenesulfonamide] | ≥ 500 nM |
| CCNC(=O)Nc1cccc(C2CCN(Cc3cn(Cc4ccccn4)nn3)CC2)c1 [Example 111, 1-ethyl-3-(3-(1-((1-(pyridin-2-ylmethyl)-1H-1,2,3-triazol-4-yl)methyl)piperidin-4-yl)phenyl)urea] | ≥ 500 nM |
| CS(=O)(=O)Nc1cccc(C2CCN(Cc3cn(-c4ccccc4F)nn3)CC2)c1 [Example 27, N-(3-(1-((1-(2-fluorophenyl)-1H-1,2,3-triazol-4-yl)methyl)piperidin-4-yl)phenyl)methanesulfonamide] | < 100 nM |
| Oc1cccc(C2CCN(Cc3cc(Cc4ccccc4)no3)CC2)c1 [Example 177, 3-(1-((3-benzylisoxazol-5-yl)methyl)piperidin-4-yl)phenol] | < 100 nM |
| OCC(c1ccccc1)n1cc(CN2CCC(c3cccc(O)c3)CC2)nn1 (stereo not shown) [Example 67, 3-(1-((1-(2-hydroxy-1-phenylethyl)-1H-1,2,3-triazol-4-yl)methyl)piperidin-4-yl)phenol] | < 500 nM |
| c1ccc(-n2cc(CN3CCC(c4cccc(-c5nnn[nH]5)c4)CC3)nn2)cc1 [Example 85, 4-(3-(1H-tetrazol-5-yl)phenyl)-1-((1-phenyl-1H-1,2,3-triazol-4-yl)methyl)piperidine] | ≥ 500 nM |
| Oc1ccccc1C1CCN(Cc2cn(-c3ccccc3)nn2)CC1 [Example 222, 2-(1-((1-phenyl-1H-1,2,3-triazol-4-yl)methyl)piperidin-4-yl)phenol] | < 500 nM |
| CS(=O)(=O)Nc1cccc(C2CCN(Cc3cn(Cc4ccccc4)nn3)CC2)c1 [Example 37, N-(3-(1-((1-benzyl-1H-1,2,3-triazol-4-yl)methyl)piperidin-4-yl)phenyl)methanesulfonamide] | < 500 nM |
| c1ccc(Cn2cc(CN3CCC(c4cccc(Nc5nccs5)c4)CC3)nn2)nc1 [Example 229, N-(3-(1-((1-(pyridin-2-ylmethyl)-1H-1,2,3-triazol-4-yl)methyl)piperidin-4-yl)phenyl)thiazol-2-amine] | < 500 nM |
